In US10328053B2 (Gilead Sciences, Inc., priority 2016, dated 2019):

What was measured:
[1] = system: HBV AD38 viral particles in HepG2 cell line overexpressing NTCP; test: HBV DNA Quantification Assay; assay type: cell-based; details: Hepatitis B virus, HepG2, 120 h, HBV-infected HepG2-NTCP cells, 5 days incubation, HBV DNA in culture supernatant (QuantiGene 2.0); geometric mean of a minimum of four determinations
Description: HBV DNA Quantification Assay
A HepG2 cell line overexpressing the HBV virus attachment receptor sodium-taurocholate cotransporting polypeptide (NTCP) was grown to confluency in DMEM growth medium, Dulbecco's Modified Eagle Medium without sodium pyruvate (Life Technologies, Rockville, Md.) supplemented with 10% FBS (Thermo Scientific, Waltham, Md.), 1% penicillin/streptomycin (Life Technologies, Rockville, Md.) and 2 mM L-glutamine (Life Technologies, Rockville, Md.) in T175 flasks. Cells were infected with HBV AD38 viral particles (Texcell, Frederick, USA) at 4000 genome equivalents per cell. After allowing viral infection to take place for 4 days, the infected cells were harvested from the flasks by trypsinization, washed twice with OptiMEM (Life Technologies, Rockville, Md.) and re-suspended in DMEM containing 2% FBS and 1% DMSO at a density of 0.25E6 cells/ml. Infected cells were seeded on 384 well collagen coated plates (Greiner, Austria) at a density of 20,000 cells/well containing serially diluted compounds of the present disclosure or DMSO (0.5%) in a final volume of 80 μl. The assay plates were incubated for a period of 5 days and the antiviral activity of the test compounds were assayed by detecting the presence of HBV DNA in the culture supernatant using the QuantiGene™ 2.0 nucleic acid quantification kit (Affymetrix, Santa Clara, Calif.).
The culture supernatant was harvested and treated with lysis buffer containing Proteinase K (Affymetrix, Santa Clara, Calif.). The supernatant was incubated with HBV viral DNA specific probes (Affymetrix, Santa Clara, Calif.) for 30 minutes at 55° C. This was followed by addition of 0.2M NaOH for 30 minutes at room temperature to denature the DNA, followed by addition of Neutralization buffer (Affymetrix, Santa Clara, Calif.). The resulting lysed and neutralized supernatant was then added to QuantiGene™ 2.0 384 well plates coated with capture oligonucleotides and incubated overnight at 55° C. The HBV specific probe set consists of Capture Extender oligonucleotides (CE's) and blocking probes. Following the overnight incubation, the wells were incubated for one hour sequentially with a Pre-Amplifier, Amplifier and Labeled probes conjugated to alkaline phosphatase with a wash step between incubations. After the final wash step, the alkaline phosphatase substrate (Luminol APS5) was added and the resulting luminescence signal was read in an EnVision Multilabel Plate Reader (PerkinElmer, Santa Clara, Calif.). The EC50 values were calculated from the fit of the dose—response curves to a four-parameter equation. All EC50 values represent geometric mean values of a minimum of four determinations.

[2] = Hepatic Stability Assay (in vitro half-life method); assay type: in vitro ADME; set-up: dose or concentration left out as unconfirmed; details: pooled cryopreserved hepatocytes, 37° C., 1×10^6 cells/mL, 0-6 hours, LC-MS/MS, 39.5 hours is the maximum detectable half life, read-out: t½ (converted)
Method in brief: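 Pooled cryopreserved hepatocytes (1×10^6 cells/mL) incubated with compound at […] test concentration, 37° C.; samples at 0, 1, 3 and 6 h quantified by LC-MS/MS. Half-life from rate of compound disappearance, scaled to predicted hepatic clearance via well-stirred model.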

## Cc1c(C(=O)C(=O)NC2(c3c[nH]nn3)CC(F)(F)C2)c2n(c1C(=O)Nc1cc(F)c(F)c(F)c1)[C@@H]1C[C@@H]1C2 [Example 40, (1aR,6aR)-5-(2-((3,3-difluoro-1-(1H-1,2,3-triazol-4-yl)cyclobutyl)amino)-2-oxoacetyl)-4-methyl-N-(3,4,5-trifluorophenyl)-1,1a,6,6a-tetrahydrocyclopropa[b]pyrrolizine-3-carboxamide]
[1]
  EC50: 1.9 nM
[2]
  half-life: 5.2 h

## Cc1c(C(=O)C(=O)NC2(c3c[nH]nn3)CC(F)(F)C2)c2n(c1C(=O)Nc1ccc(F)c(C#N)c1)[C@@H]1C[C@@H]1C2 [Example 41, (1aR,6aR)—N-(3-cyano-4-fluorophenyl)-5-(2-((3,3-difluoro-1-(1H-1,2,3-triazol-4-yl)cyclobutyl)amino)-2-oxoacetyl)-4-methyl-1,1a,6,6a-tetrahydrocyclopropa[b]pyrrolizine-3-carboxamide]
[1]
  EC50: 7.5 nM
[2]
  half-life: 4.9 h

## Cc1c(C(=O)C(=O)NC2(c3c[nH]nn3)CC(F)(F)C2)c2n(c1C(=O)Nc1ccc(F)c(F)c1)[C@@H]1C[C@@H]1C2 [Example 42, (1aR,6aR)-5-(2-((3,3-difluoro-1-(1H-1,2,3-triazol-4-yl)cyclobutyl)amino)-2-oxoacetyl)-N-(3,4-difluorophenyl)-4-methyl-1,1a,6,6a-tetrahydrocyclopropa[b]pyrrolizine-3-carboxamide]
[1]
  EC50: 2.1 nM
[2]
  half-life: 3.5 h

## Cc1c(C(=O)C(=O)NC2(c3c[nH]nn3)CC2)c2n(c1C(=O)Nc1ccc(F)c(Cl)c1)C[C@H](F)C2 [Example 45, (R)-7-(2-((1-(1H-1,2,3-triazol-4-yl)cyclopropyl)amino)-2-oxoacetyl)-N-(3-chloro-4-fluorophenyl)-2-fluoro-6-methyl-2,3-dihydro-1H-pyrrolizine-5-carboxamide]
[1]
  EC50: 9.1 nM
[2]
  half-life: 13.3 h

## Cc1c(C(=O)C(=O)NC2(c3c[nH]nn3)CC2)c2n(c1C(=O)Nc1ccc(F)c(Cl)c1)C[C@@H](F)C2 [Example 46, (S)-7-(2-((1-(1H-1,2,3-triazol-4-yl)cyclopropyl)amino)-2-oxoacetyl)-N-(3-chloro-4-fluorophenyl)-2-fluoro-6-methyl-2,3-dihydro-1H-pyrrolizine-5-carboxamide]
[1]
  EC50: 264 nM
[2]
  half-life: 16 h

## Cc1c(C(=O)C(=O)NC2(c3c[nH]nn3)CC(F)(F)C2)c2n(c1C(=O)Nc1ccc(F)cc1)C[C@H](F)C2 [Example 48, (R)-7-(2-((3,3-difluoro-1-(1H-1,2,3-triazol-4-yl)cyclobutyl)amino)-2-oxoacetyl)-2-fluoro-N-(4-fluorophenyl)-6-methyl-2,3-dihydro-1H-pyrrolizine-5-carboxamide]
[1]
  EC50: 6.5 nM
[2]
  half-life: 7.9 h

## Cc1c(C(=O)C(=O)NC2(c3c[nH]nn3)CC2)c2n(c1C(=O)Nc1ccc(F)c(Cl)c1)[C@@H]1C[C@@H]1C2 [Example 52, (1aR,6aR)-5-(2-((1-(1H-1,2,3-triazol-4-yl)cyclopropyl)amino)-2-oxoacetyl)-N-(3-chloro-4-fluorophenyl)-4-methyl-1,1a,6,6a-tetrahydrocyclopropa[b]pyrrolizine-3-carboxamide]
[1]
  EC50: 7.7 nM
[2]
  half-life: 4.2 h

## Cc1c(C(=O)C(=O)NC2(c3c[nH]nn3)CC(F)(F)C2)c2n(c1C(=O)Nc1cc(F)c(F)c(F)c1)CCC2 [Example 53, 7-(2-((3,3-difluoro-1-(1H-1,2,3-triazol-4-yl)cyclobutyl)amino)-2-oxoacetyl)-6-methyl-N-(3,4,5-trifluorophenyl)-2,3-dihydro-1H-pyrrolizine-5-carboxamide]
[1]
  EC50: 3.2 nM
[2]
  half-life: 10.8 h

## Cc1c(C(=O)C(=O)NC2(c3nncs3)CC2)c2n(c1C(=O)Nc1ccc(F)c(Cl)c1)[C@@H]1C[C@@H]1C2 [Example 54, (1aR,6aR)-5-(2-((1-(1,3,4-thiadiazol-2-yl)cyclopropyl)amino)-2-oxoacetyl)-N-(3-chloro-4-fluorophenyl)-4-methyl-1,1a,6,6a-tetrahydrocyclopropa[b]pyrrolizine-3-carboxamide]
[1]
  EC50: 7.8 nM
[2]
  half-life: 6.7 h

## Cc1c(C(=O)C(=O)NC2(c3nncs3)CC2)c2n(c1C(=O)Nc1cc(F)c(F)c(F)c1)[C@@H]1C[C@@H]1C2 [Example 57, (1aR,6aR)-5-(2-((1-(1,3,4-thiadiazol-2-yl)cyclopropyl)amino)-2-oxoacetyl)-4-methyl-N-(3,4,5-trifluorophenyl)-1,1a,6,6a-tetrahydrocyclopropa[b]pyrrolizine-3-carboxamide]
[1]
  EC50: 9.9 nM
[2]
  half-life: 8 h

## C#CC1(NC(=O)C(=O)c2c(C)c(C(=O)Nc3ccc(F)c(Cl)c3)n3c2CCC3)CC(F)(F)C1 [Example 60, N-(3-chloro-4-fluorophenyl)-7-(2-((1-ethynyl-3,3-difluorocyclobutyl)amino)-2-oxoacetyl)-6-methyl-2,3-dihydro-1H-pyrrolizine-5-carboxamide]
[1]
  EC50: 1.8 nM
[2]
  half-life: 3.9 h

## Cc1c(C(=O)C(=O)NC2(c3ccccc3)CC2)c2n(c1C(=O)Nc1ccc(F)c(Cl)c1)CCC2 [Example 66, N-(3-chloro-4-fluorophenyl)-6-methyl-7-(2-oxo-2-((1-phenylcyclopropyl)amino)acetyl)-2,3-dihydro-1H-pyrrolizine-5-carboxamide]
[1]
  EC50: 6.5 nM
[2]
  half-life: 1.4 h

## Cc1c(C(=O)C(=O)NC2(c3nncs3)CC2)c2n(c1C(=O)Nc1ccnc(C(F)F)c1F)[C@@H]1C[C@@H]1C2 [Example 68, (1aR,6aR)-5-(2-((1-(1,3,4-thiadiazol-2-yl)cyclopropyl)amino)-2-oxoacetyl)-N-(2-(difluoromethyl)-3-fluoropyridin-4-yl)-4-methyl-1,1a,6,6a-tetrahydrocyclopropa[b]pyrrolizine-3-carboxamide]
[1]
  EC50: 110 nM
[2]
  half-life: 5.2 h

## Cc1c(C(=O)C(=O)NC2(c3c[nH]nn3)CC2)c2n(c1C(=O)Nc1cccc(Cl)c1)CCC2 [Example 74, 7-(2-((1-(1H-1,2,3-triazol-4-yl)cyclopropyl)amino)-2-oxoacetyl)-N-(3-chlorophenyl)-6-methyl-2,3-dihydro-1H-pyrrolizine-5-carboxamide]
[1]
  EC50: 42 nM
[2]
  half-life: 22.2 h

## Cc1c(C(=O)C(=O)NC2(c3c[nH]nn3)CC2)c2n(c1C(=O)Nc1cccc(C#N)c1)CCC2 [Example 75, 7-(2-((1-(1H-1,2,3-triazol-4-yl)cyclopropyl)amino)-2-oxoacetyl)-N-(3-cyanophenyl)-6-methyl-2,3-dihydro-1H-pyrrolizine-5-carboxamide]
[1]
  EC50: 106 nM
[2]
  half-life: 17.3 h

## Cc1c(C(=O)C(=O)NC2(c3c[nH]nn3)CC2)c2n(c1C(=O)Nc1ccc(F)c(C(F)F)c1)CCC2 [Example 77, 7-(2-((1-(1H-1,2,3-triazol-4-yl)cyclopropyl)amino)-2-oxoacetyl)-N-(3-(difluoromethyl)-4-fluorophenyl)-6-methyl-2,3-dihydro-1H-pyrrolizine-5-carboxamide]
[1]
  EC50: 19 nM
[2]
  half-life: 22.1 h

## Cc1c(C(=O)C(=O)NC2(c3c[nH]nn3)CC(F)(F)C2)c2n(c1C(=O)Nc1ccnc(C(F)F)c1F)[C@@H]1C[C@@H]1C2 [Example 80, (1aR,6aR)-5-(2-((3,3-difluoro-1-(1H-1,2,3-triazol-4-yl)cyclobutyl)amino)-2-oxoacetyl)-N-(2-(difluoromethyl)-3-fluoropyridin-4-yl)-4-methyl-1,1a,6,6a-tetrahydrocyclopropa[b]pyrrolizine-3-carboxamide]
[1]
  EC50: 8.7 nM
[2]
  half-life: 6.3 h

## CNC(=O)C(C)(C)NC(=O)C(=O)c1c(C)c(C(=O)Nc2cc(F)c(F)c(F)c2)n2c1CCC2 [Example 83, 6-methyl-7-(2-((2-methyl-1-(methylamino)-1-oxopropan-2-yl)amino)-2-oxoacetyl)-N-(3,4,5-trifluorophenyl)-2,3-dihydro-1H-pyrrolizine-5-carboxamide]
[1]
  EC50: 199 nM
[2]
  half-life: 19.2 h

## Cc1c(C(=O)C(=O)NC2(c3cnn[nH]3)CC2)c2n(c1C(=O)Nc1ccc(F)c(Cl)c1F)CCC2 [Example 84, 7-(2-((1-(1H-1,2,3-triazol-5-yl)cyclopropyl)amino)-2-oxoacetyl)-N-(3-chloro-2,4-difluorophenyl)-6-methyl-2,3-dihydro-1H-pyrrolizine-5-carboxamide]
[1]
  EC50: 31 nM
[2]
  half-life: 10.7 h
